*1 amine or outer side, *2 acyl side, *3 side chain or, on linkers, in order; H or OH if unused. Where a SMILES comes first, the peptide text is derived from it. Bridges are numbered along the chain shown (N, C = ends). [ ]: non-standard residue; d: D form. X1 = O=C(C[C@H](N[*:1])c1ccc(F)cc1)[*:2]; dPhe(4-F) = N[C@H](Cc1ccc(F)cc1)C(=O)O

The text below walks through data of PMC11310889, “Ribosomal translation of fluorinated non-canonical amino acids for de novo biologically active fluorinated macrocyclic peptides” (Chemical Science, 2024).

The subject of one data set is T1, BAM complex.
T1 construct: made in house; host or cells: E. coli BL21(DE3), strain obtained from Xinmiao Fu, Fujian Normal University
In words: SPR binding kinetics to BAM complex. Set-up: species or system E. coli. The note with it: Biacore T200, 25 °C, multi-cycle kinetics, 1:1 model; for ka for BAM complex: CM5 chip; for Kd: HBS-EP+ buffer pH 7.4 with 0.1% DMSO, BAM complex on CM5 chip (9500 RU). The procedure: Expression and purification of the BAM complex
The E. coli BL21(DE3) cells containing all five Bam proteins (BamA, B, C, D, and E) was obtained from Xinmiao Fu of Fujian Normal University and used for expression and purification.
The BL21(DE3) cells plated onto LB-ampicillin agar plates and incubated overnight at 37 °C. A 20 mL culture incubated overnight at 37°C was prepared from a single colony in LB medium supplemented with 100 mg/L of ampicillin. The strain was inoculated into fresh LB liquid medium according to the inoculation ratio of 1:100 and incubated at 37 ℃ for about 4 hours until the OD600 reached about 1.0. The temperature of the incubator was set to 20 ℃ and then cultured for 1 hour, and 200 uM IPTG was added to induce overnight. First of all, the induced cells were collected by freezing centrifuge 3000 rpm for 30 min, and the collected cells were resuspended with Buffer 1 (20 mM Tris-HCl, pH 8.0, 150 mM NaCl), and then crushed low temperature and pressure with a high pressure crusher. The broken cells were centrifuged 1 hour at 4 °C for18000 rpm by high speed centrifuge. After centrifugation at 4 °C 18000 rpm for 1 hour, and the supernatant was discarded and the cell membrane was collected. The collected cell membranes were resuscitated with Buffer 2 (20 mM Tris-HCl, pH 8.0, 300 mM NaCl, 1% DDM) and then dissolved at 4 °C for 2 hours. After dissolving the membrane, the supernatant was collected by high speed centrifuge at 18,000 rpm. The 20 mM imidazole was added to the supernatant and incubated with a 2 mL Ni-NTA sefinoseTM resin column for 1 hour. After incubation, 10 column volumes were washed with Buffer 3 (20 mM Tris-HCl, pH 8.0, 300 mM NaCl, 0.025%DDM) containing 30 mM and 50 mM imidazole respectively. Then, the protein was eluted with Buffer 3 containing 200 mM imidazole, and the eluted protein was collected. Finally, using the 20-fold molar excess of EZ-LinkTM Sulfo-NHS-LC-LC-Biotin for BAM complex, and incubate reaction on ice for 2 hours. After the protein labeling is completed, dialysis is used to purify the labeled protein to remove the remaining unreacted and hydrolyzed biotin reagents. […]
The mobile phase was 0.1% TFA aqueous solution / acetonitrile containing 0.1%
TFA. The purified macrocyclic peptides and fluorinated macrocyclic peptides were confirmed by electrospray ionization mass spectrometry (ESI-MS).
Binding kinetics analysis by SPR
The binding kinetics between the selected peptides and EphA2 were tested by SPR using a Biacore T200 instrument (GE Healthcare) at 25 °C. In this study, the running buffer was HBS-EP+ buffer (10 mM HEPES-KOH (pH 7.4), 150 mM NaCl, 50 μM EDTA, 0.05% Tween 20) containing 0.1% DMSO. Biotin capture kit (GE Healthcare) was used to fix human EphA2 on the surface of Biacore CAP chip with a density of 1050 RU. Five different concentrations of peptides were injected at the flow rate of 30 μL/min, and their kinetic constants were determined. The binding kinetic was quantified by single cycle kinetic method. Finally, the binding sensorgrams was analyzed by Biacore evaluation software, and the standard 1:1 model was used for fitting.
The binding kinetics between the selected peptides and BAM complex were tested by SPR using […]
a Biacore T200 instrument (GE Healthcare) at 25 °C. In this study, the running buffer was HBS-EP+ […]
0.1% DMSO. The Series S Sensor Chip CM5 was used to fix BAM complex on the surface of Biacore CM5 chip with a density of 9500 RU. The binding mode was multi-cycle kinetics (one sample concentration one cycle). Finally, the binding sensorgrams was analyzed by Biacore evaluation software, and the standard 1:1 model was used for fitting.
(§1) Preliminary evaluation of the antibacterial activity of macrocyclic peptides against E. coli […]
Remove the previously preserved E. coli W3110 cells from the -80 °C refrigerator, scrape a little, inoculate it into 1 mL LB liquid medium, and culture overnight in 37°C shaker. The strain was […]
On the technique in general: Surface plasmon resonance follows binding to a sensor surface in real time, without labels.

In another data set the test system is mouse red blood cells. The data set is classed as cell-based. The procedure:
a Biacore T200 instrument (GE Healthcare) at 25 °C. In this study, the running buffer was HBS-EP+ buffer (10 mM HEPES-KOH (pH 7.4), 150 mM NaCl, 50 μM EDTA, 0.05% Tween 20) containing 0.1% DMSO. The Series S Sensor Chip CM5 was used to fix BAM complex on the surface of Biacore CM5 chip with a density of 9500 RU. The binding mode was multi-cycle kinetics (one sample concentration one cycle). Finally, the binding sensorgrams was analyzed by Biacore evaluation software, and the standard 1:1 model was used for fitting.
as §1
Remove the previously preserved E. coli W3110 cells from the -80 °C refrigerator, scrape a little, inoculate it into 1 mL LB liquid medium, and culture overnight in 37°C shaker. The strain was inoculated into fresh LB liquid medium according to the inoculation ratio of 1:100 and incubated at 37℃ until the OD600 reached about 0.47~0.53. […]
Finally, the plate was scanned and counted. […]
the samples were centrifuged at 1000 rpm for 10 min，and take pictures of the pellet after centrifugation. […] The absorbance of the supernatant at the wavelength of 545 nm was measured by microplate reader, and the percentage of hemolysis of each […]

T1 sequence (P0A903 25-344): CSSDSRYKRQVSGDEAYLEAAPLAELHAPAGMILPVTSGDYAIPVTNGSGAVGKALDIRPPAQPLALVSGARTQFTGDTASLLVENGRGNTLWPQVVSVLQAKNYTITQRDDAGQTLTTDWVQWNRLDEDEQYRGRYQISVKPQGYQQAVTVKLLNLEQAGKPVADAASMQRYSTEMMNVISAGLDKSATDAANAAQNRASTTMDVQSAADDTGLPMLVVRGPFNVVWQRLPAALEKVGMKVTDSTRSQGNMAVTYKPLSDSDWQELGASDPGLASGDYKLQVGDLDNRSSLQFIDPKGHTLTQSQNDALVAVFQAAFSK
T1 sequence (P0AC02 20-245, further chain): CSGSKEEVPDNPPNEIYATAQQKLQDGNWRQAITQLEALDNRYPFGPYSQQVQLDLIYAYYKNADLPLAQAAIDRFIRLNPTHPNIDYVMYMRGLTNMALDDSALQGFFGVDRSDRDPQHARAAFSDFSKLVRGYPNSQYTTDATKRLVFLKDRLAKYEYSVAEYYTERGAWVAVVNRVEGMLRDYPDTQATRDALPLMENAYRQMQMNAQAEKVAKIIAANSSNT
T1 sequence (P0A937 20-113, further chain): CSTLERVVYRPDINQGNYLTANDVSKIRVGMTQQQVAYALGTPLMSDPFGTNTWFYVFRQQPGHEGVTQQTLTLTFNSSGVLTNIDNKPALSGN
T1 sequence (P77774 20-392, further chain): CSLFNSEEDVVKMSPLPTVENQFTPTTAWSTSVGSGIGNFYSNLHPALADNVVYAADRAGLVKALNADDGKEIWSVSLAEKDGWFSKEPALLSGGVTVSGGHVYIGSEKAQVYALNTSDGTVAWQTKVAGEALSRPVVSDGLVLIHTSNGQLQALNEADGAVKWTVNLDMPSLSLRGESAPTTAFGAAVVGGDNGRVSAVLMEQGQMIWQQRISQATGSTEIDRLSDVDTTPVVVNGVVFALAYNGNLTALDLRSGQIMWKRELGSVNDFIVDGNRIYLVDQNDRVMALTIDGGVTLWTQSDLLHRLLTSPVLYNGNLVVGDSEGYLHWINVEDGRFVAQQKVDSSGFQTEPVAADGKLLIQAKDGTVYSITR

For orientation: Kd means the free concentration of one partner at which half of the binding sites on the other are occupied at equilibrium, for simple one-to-one binding. Turning to `CC[C@H](C)[C@@H]1NC(=O)[C@H](Cc2ccccc2)NC(=O)[C@H](Cc2c[nH]cn2)NC(=O)[C@H](CCCCN)NC(=O)[C@@H](Cc2ccc(F)cc2)NC(=O)CSC[C@@H](C(=O)NCC(N)=O)NC(=O)[C@H]([C@@H](C)CC)NC(=O)[C@@H]2CCCN2C(=O)[C@H](CO)NC(=O)[C@H](CCCNC(=N)N)NC(=O)[C@H](Cc2ccc(O)cc2)NC(=O)C[C@@H](c2ccc(F)cc2)NC(=O)[C@H](Cc2ccc(O)cc2)NC1=O` [BAM-β3] ({CH2CO}-[dPhe(4-F)]KHFIY[X1]YRSPICG-NH2; thioether N-13), in the data set with BAM complex, the “ka for BAM complex” value is reported as 2.54 ×10 4 M-1s-1 and the affinity, expressed as Kd, was 453 nM. Further, the “hemolytic toxicity towards mouse red blood cells” value in the data set with mouse red blood cells was “low to negligible hemolytic toxicity”.
Taken in the same sequence, the figures for `CC[C@H](C)[C@@H]1NC(=O)[C@@H](Cc2ccc(F)cc2)NC(=O)CSC[C@@H](C(=O)NCC(N)=O)NC(=O)[C@H]([C@@H](C)O)NC(=O)[C@H](Cc2c[nH]cn2)NC(=O)[C@H](CC(C)C)NC(=O)[C@H](Cc2ccc(O)cc2)NC(=O)[C@H](CC(N)=O)NC(=O)[C@@H](Cc2ccc(F)cc2)NC(=O)[C@H]([C@@H](C)O)NC(=O)[C@H](CC(C)C)NC(=O)[C@H](CO)NC(=O)[C@H](CCCCN)NC(=O)[C@H](Cc2c[nH]cn2)NC(=O)[C@H](Cc2c[nH]c3ccccc23)NC1=O` [BAM-f2] ({CH2CO}-[dPhe(4-F)]IWHKSLT[dPhe(4-F)]NYLHTCG-NH2; thioether N-15) were 0.90 ×10 4 M-1s-1, 755 nM and “low to negligible hemolytic toxicity”.
